Conditions: Hot wire method

C=C(F)C(F)(F)F [2,3,3,3-tetrafluoro-1-propene]
Conditions | thermal conductivity [W/m/K]
303.53 K, 5728 kPa, Liquid | 0.06591
303.55 K, 638 kPa, Gas | 0.01428
303.58 K, 863 kPa, Liquid | 0.06214
303.62 K, 95 kPa, Gas | 0.01418
303.69 K, 16013 kPa, Liquid | 0.0724
303.7 K, 10745 kPa, Liquid | 0.06899
303.7 K, 20552 kPa, Liquid | 0.07462
303.71 K, 509 kPa, Gas | 0.0142
303.73 K, 5727 kPa, Liquid | 0.06571
303.76 K, 199 kPa, Gas | 0.01415
303.8 K, 863 kPa, Liquid | 0.06166
303.93 K, 349 kPa, Gas | 0.01413
304.07 K, 95 kPa, Gas | 0.01428
304.07 K, 16014 kPa, Liquid | 0.07249
304.07 K, 20551 kPa, Liquid | 0.07457
304.1 K, 10744 kPa, Liquid | 0.06936
304.15 K, 5727 kPa, Liquid | 0.06587
304.2 K, 199 kPa, Gas | 0.0142
304.24 K, 861 kPa, Liquid | 0.06192
304.28 K, 20546 kPa, Liquid | 0.07468
304.3 K, 16011 kPa, Liquid | 0.07229
304.33 K, 10741 kPa, Liquid | 0.069
304.39 K, 5724 kPa, Liquid | 0.06553
304.5 K, 861 kPa, Liquid | 0.06141
304.55 K, 95 kPa, Gas | 0.01429
311.19 K, 200 kPa, Gas | 0.01522
311.21 K, 97 kPa, Gas | 0.01495
311.39 K, 298 kPa, Gas | 0.01522
311.41 K, 200 kPa, Gas | 0.01508
311.44 K, 97 kPa, Gas | 0.01475
311.61 K, 298 kPa, Gas | 0.01516
311.64 K, 200 kPa, Gas | 0.01494
311.67 K, 98 kPa, Gas | 0.01469
311.84 K, 298 kPa, Gas | 0.01507
311.87 K, 877 kPa, Gas | 0.01518
311.89 K, 200 kPa, Gas | 0.01484
311.92 K, 97 kPa, Gas | 0.01463
311.99 K, 676 kPa, Gas | 0.01501
312.01 K, 610 kPa, Gas | 0.01499
312.09 K, 298 kPa, Gas | 0.01504
312.14 K, 200 kPa, Gas | 0.01477
312.15 K, 876 kPa, Gas | 0.01537
312.16 K, 409 kPa, Gas | 0.0149
312.18 K, 97 kPa, Gas | 0.01458
312.25 K, 298 kPa, Gas | 0.01491
312.3 K, 675 kPa, Gas | 0.01513
312.31 K, 610 kPa, Gas | 0.01511
312.36 K, 200 kPa, Gas | 0.01491
312.46 K, 875 kPa, Gas | 0.01532
312.49 K, 408 kPa, Gas | 0.01491
312.57 K, 97 kPa, Gas | 0.01511
312.58 K, 298 kPa, Gas | 0.01491
312.62 K, 673 kPa, Gas | 0.01513
312.66 K, 608 kPa, Gas | 0.01506
312.72 K, 200 kPa, Gas | 0.01494
312.8 K, 873 kPa, Gas | 0.01537
312.85 K, 408 kPa, Gas | 0.01492
312.96 K, 298 kPa, Gas | 0.01498
312.97 K, 97 kPa, Gas | 0.01513
312.97 K, 673 kPa, Gas | 0.01511
313.01 K, 607 kPa, Gas | 0.01512
313.11 K, 200 kPa, Gas | 0.01497
313.15 K, 872 kPa, Gas | 0.01537
313.23 K, 408 kPa, Gas | 0.01499
313.34 K, 672 kPa, Gas | 0.01515
313.36 K, 298 kPa, Gas | 0.01497
313.38 K, 608 kPa, Gas | 0.01508
313.39 K, 98 kPa, Gas | 0.01515
313.53 K, 200 kPa, Gas | 0.015
313.62 K, 409 kPa, Gas | 0.01501
313.78 K, 298 kPa, Gas | 0.01501
313.83 K, 97 kPa, Gas | 0.01516
313.96 K, 201 kPa, Gas | 0.01503
314.3 K, 97 kPa, Gas | 0.01518
321.31 K, 103 kPa, Gas | 0.01573
321.31 K, 200 kPa, Gas | 0.01591
321.31 K, 302 kPa, Gas | 0.01608
321.46 K, 1449 kPa, Liquid | 0.05663
321.54 K, 103 kPa, Gas | 0.01562
321.54 K, 200 kPa, Gas | 0.01577
321.54 K, 302 kPa, Gas | 0.01588
321.56 K, 1449 kPa, Liquid | 0.05669
321.75 K, 1115 kPa, Gas | 0.0164
321.76 K, 302 kPa, Gas | 0.01587
321.78 K, 103 kPa, Gas | 0.01553
321.79 K, 200 kPa, Gas | 0.01566
321.82 K, 1447 kPa, Liquid | 0.05704
321.95 K, 1449 kPa, Liquid | 0.05672
321.97 K, 6367 kPa, Liquid | 0.06142
322.01 K, 302 kPa, Gas | 0.01579
322.01 K, 11135 kPa, Liquid | 0.06547
322.03 K, 200 kPa, Gas | 0.0156
322.04 K, 103 kPa, Gas | 0.01545
322.04 K, 1115 kPa, Gas | 0.01641
322.11 K, 1199 kPa, Gas | 0.01674
322.14 K, 959 kPa, Gas | 0.01623
322.15 K, 16399 kPa, Liquid | 0.06904
322.18 K, 862 kPa, Gas | 0.0161
322.22 K, 1450 kPa, Liquid | 0.05677
322.22 K, 6361 kPa, Liquid | 0.06113
322.24 K, 721 kPa, Gas | 0.01595
322.25 K, 302 kPa, Gas | 0.01579
322.25 K, 21278 kPa, Liquid | 0.07192
322.26 K, 11135 kPa, Liquid | 0.06468
322.26 K, 16399 kPa, Liquid | 0.06856
322.28 K, 617 kPa, Gas | 0.01584
322.29 K, 200 kPa, Gas | 0.01556
322.33 K, 103 kPa, Gas | 0.01529
322.35 K, 1115 kPa, Gas | 0.01644
322.36 K, 21276 kPa, Liquid | 0.07119
322.37 K, 1451 kPa, Liquid | 0.05654
322.37 K, 6358 kPa, Liquid | 0.06119
322.38 K, 454 kPa, Gas | 0.01579
322.39 K, 1199 kPa, Gas | 0.01671
322.39 K, 11134 kPa, Liquid | 0.06479
322.45 K, 958 kPa, Gas | 0.01621
322.5 K, 861 kPa, Gas | 0.01614
322.51 K, 302 kPa, Gas | 0.01582
322.56 K, 720 kPa, Gas | 0.01597
322.6 K, 16396 kPa, Liquid | 0.06784
322.62 K, 617 kPa, Gas | 0.01591
322.63 K, 6353 kPa, Liquid | 0.06144
322.64 K, 201 kPa, Gas | 0.01586
322.65 K, 1450 kPa, Liquid | 0.05654
322.66 K, 11130 kPa, Liquid | 0.06486
322.67 K, 1114 kPa, Gas | 0.01646
322.69 K, 1199 kPa, Gas | 0.01673
322.71 K, 21274 kPa, Liquid | 0.0708
322.73 K, 453 kPa, Gas | 0.01585
322.76 K, 958 kPa, Gas | 0.01622
322.76 K, 16394 kPa, Liquid | 0.06823
322.8 K, 6353 kPa, Liquid | 0.06127
322.81 K, 103 kPa, Gas | 0.01605
322.81 K, 11128 kPa, Liquid | 0.06487
322.82 K, 860 kPa, Gas | 0.01612
322.84 K, 1450 kPa, Liquid | 0.05629
322.84 K, 21270 kPa, Liquid | 0.07095
322.88 K, 302 kPa, Gas | 0.01585
322.91 K, 720 kPa, Gas | 0.01599
322.98 K, 616 kPa, Gas | 0.01592
323 K, 200 kPa, Gas | 0.01592
323 K, 1199 kPa, Gas | 0.01678
323.01 K, 1114 kPa, Gas | 0.01647
323.08 K, 11126 kPa, Liquid | 0.06485
323.09 K, 6351 kPa, Liquid | 0.06135
323.1 K, 453 kPa, Gas | 0.0159
323.11 K, 957 kPa, Gas | 0.01622
323.13 K, 1448 kPa, Liquid | 0.05646
323.15 K, 16396 kPa, Liquid | 0.06821
323.18 K, 859 kPa, Gas | 0.01617
323.22 K, 103 kPa, Gas | 0.01607
323.23 K, 21266 kPa, Liquid | 0.07101
323.26 K, 11126 kPa, Liquid | 0.06472
323.27 K, 719 kPa, Gas | 0.016
323.28 K, 302 kPa, Gas | 0.0159
323.28 K, 6351 kPa, Liquid | 0.06102
323.33 K, 1199 kPa, Gas | 0.01671
323.34 K, 614 kPa, Gas | 0.01597
323.34 K, 1447 kPa, Liquid | 0.05607
323.34 K, 16393 kPa, Liquid | 0.06817
323.4 K, 200 kPa, Gas | 0.01592
323.4 K, 21264 kPa, Liquid | 0.07095
323.46 K, 956 kPa, Gas | 0.01625
323.49 K, 453 kPa, Gas | 0.01593
323.55 K, 858 kPa, Gas | 0.01618
323.65 K, 103 kPa, Gas | 0.01611
323.66 K, 718 kPa, Gas | 0.01605
323.69 K, 302 kPa, Gas | 0.01592
323.73 K, 612 kPa, Gas | 0.01601
323.75 K, 16392 kPa, Liquid | 0.06817
323.8 K, 21262 kPa, Liquid | 0.07093
323.83 K, 200 kPa, Gas | 0.01593
323.91 K, 453 kPa, Gas | 0.01589
323.97 K, 16390 kPa, Liquid | 0.068
324 K, 21259 kPa, Liquid | 0.07084
324.11 K, 302 kPa, Gas | 0.01598
324.12 K, 103 kPa, Gas | 0.01612
324.29 K, 200 kPa, Gas | 0.01599
324.62 K, 103 kPa, Gas | 0.01618
331.07 K, 101 kPa, Gas | 0.01664
331.09 K, 202 kPa, Gas | 0.01678
331.12 K, 299 kPa, Gas | 0.01699
331.29 K, 101 kPa, Gas | 0.0165
331.3 K, 202 kPa, Gas | 0.0167
331.34 K, 299 kPa, Gas | 0.01685
331.53 K, 101 kPa, Gas | 0.01639
331.54 K, 202 kPa, Gas | 0.01658
331.56 K, 300 kPa, Gas | 0.01677
331.78 K, 102 kPa, Gas | 0.01632
331.78 K, 202 kPa, Gas | 0.0165
331.8 K, 300 kPa, Gas | 0.0167
331.8 K, 1511 kPa, Gas | 0.01797
331.86 K, 1389 kPa, Gas | 0.0177
331.9 K, 1236 kPa, Gas | 0.01732
331.98 K, 1075 kPa, Gas | 0.01717
332 K, 975 kPa, Gas | 0.01697
332.04 K, 102 kPa, Gas | 0.01627
332.04 K, 202 kPa, Gas | 0.01642

Liquid
Conditions | thermal conductivity [W/m/K]
313.15 K | 0.05899
323.15 K | 0.05606

From the NIST ThermoML archive (doi:10.1021/je200811n)
